Reference: US20260176320A1, “MODULATORS OF G-PROTEIN COUPLED RECEPTORS” (priority 2018, published 2026)
Numbered stars: 1 amine (or outer) side, 2 acyl side, 3 side chain; on linkers, the order of the positions; unused ones are H or OH. Square brackets hold non-standard residues; d marks the D form. Side chains are listed from the residue outwards. Peptide text beside a SMILES is read from it. * marks the point of attachment. γGlu = O=C(O)[C@H](CCC(=O)[*:2])N[*:1]; Palmitoyl = CCCCCCCCCCCCCCCC(=O)*; X6 = O=C(CSCC(=O)*)NCCN1CCCCC1=O; Aib = CC(C)(N)C(=O)O

Tests used:
Assay type in all cases: cell-based
GLP-1R [1] = target: T1, GLP-1R (Homo sapiens, UniProt P43220); experiment: HitHunter cAMP assay (GLP-1R); conditions: Table 3A, cAMP; for Emax: read-out: (Emax) GLP-1R; for EC50: read-out: EC50 GLP-1R/nM
Outline: (§1)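 cAMP accumulation read by luminescent HitHunter immunocompetition after 30 min room-temperature agonist stimulation. Agonists tested as 22-point twofold dilutions, in duplicate, on 10,000 cells/well in HBSS containing 625 μM IBMX, 10 mM HEPES and 0.2% BSA.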

GLP-1R [2] = target: T1, GLP-1R; experiment: PathHunter β-arrestin assay; conditions: PathHunter β-arrestin assay; read-out: β-arrestin activity EC50
Outline: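 β-Arrestin recruitment measured by PathHunter enzyme-fragment luminescence, read after 3 h dark incubation at room temperature with detection solution. Beforehand, agonist in a 22-point 2-fold series was applied in duplicate for 90 min at 37 °C to 5,000 cells/well in BSA-containing (0.2%) medium.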

GIP-R = target: T2, GIP-R (Homo sapiens, UniProt P48546); experiment: HitHunter cAMP assay (GIP-R); conditions: Table 3A, cAMP; for Emax: read-out: (Emax) GIP-R; for EC50: read-out: EC50 GIP-R/nM
T2 sequence (P48546 22-466): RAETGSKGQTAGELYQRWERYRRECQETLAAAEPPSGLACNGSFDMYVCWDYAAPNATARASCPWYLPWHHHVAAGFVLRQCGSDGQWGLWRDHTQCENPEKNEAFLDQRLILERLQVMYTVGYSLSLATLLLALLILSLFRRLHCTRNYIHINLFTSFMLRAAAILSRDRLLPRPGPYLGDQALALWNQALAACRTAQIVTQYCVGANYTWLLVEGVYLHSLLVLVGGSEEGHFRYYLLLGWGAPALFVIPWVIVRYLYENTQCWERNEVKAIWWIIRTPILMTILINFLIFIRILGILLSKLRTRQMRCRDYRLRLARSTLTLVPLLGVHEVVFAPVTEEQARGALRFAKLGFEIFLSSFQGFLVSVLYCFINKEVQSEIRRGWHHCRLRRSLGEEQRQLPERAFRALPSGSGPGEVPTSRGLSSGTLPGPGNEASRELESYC
Outline: as §1

T1 sequence (P43220 24-463): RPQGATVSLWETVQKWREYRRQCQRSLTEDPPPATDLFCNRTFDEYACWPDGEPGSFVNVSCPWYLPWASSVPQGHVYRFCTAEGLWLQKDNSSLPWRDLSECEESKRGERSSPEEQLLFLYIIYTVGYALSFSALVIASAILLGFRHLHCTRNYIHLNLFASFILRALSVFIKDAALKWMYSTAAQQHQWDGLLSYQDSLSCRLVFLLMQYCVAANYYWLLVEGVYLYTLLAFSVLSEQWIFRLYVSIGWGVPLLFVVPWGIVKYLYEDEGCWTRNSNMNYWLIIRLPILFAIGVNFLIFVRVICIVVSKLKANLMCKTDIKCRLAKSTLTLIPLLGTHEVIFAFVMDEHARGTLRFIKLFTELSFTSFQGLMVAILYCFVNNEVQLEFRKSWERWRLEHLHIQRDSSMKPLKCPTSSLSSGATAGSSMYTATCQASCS

| SMILES | Emax (GLP-1R [1]) [%] | EC50 (GLP-1R [1]) [nM] | EC50 (GLP-1R [2]) [nM] | Emax (GIP-R) [%] | EC50 (GIP-R) [nM] |
| --- | --- | --- | --- | --- | --- |
| CCCCCCCCCCCCCCCC(=O)N[C@@H](CCC(=O)NCCCC[C@H](NC(=O)[C@H](CO)NC(=O)[C@@H]1CCCN1C(=O)[C@@H]1CCCN1C(=O)[C@@H]1CCCN1C(=O)[C@H](C)NC(=O)CNC(=O)[C@H](CO)NC(=O)[C@H](CO)NC(=O)[C@@H]1CCCN1C(=O)CNC(=O)CNC(=O)[C@H](C)NC(=O)[C@H](CC(C)C)NC(=O)[C@H](CC(C)C)NC(=O)[C@H](Cc1c[nH]c2ccccc12)NC(=O)[C@H](CC(N)=O)NC(=O)[C@@H](NC(=O)[C@H](Cc1ccccc1)NC(=O)[C@H](CCC(=O)O)NC(=O)C(C)(C)NC(=O)[C@H](C)NC(=O)[C@H](C)NC(=O)[C@H](CCC(N)=O)NC(=O)[C@H](CCCCN)NC(=O)[C@H](CC(=O)O)NC(=O)[C@H](CC(C)C)NC(=O)[C@H](Cc1ccc(O)cc1)NC(=O)[C@@H](NC(=O)[C@H](CO)NC(=O)[C@H](Cc1ccc(O)cc1)NC(=O)[C@H](CC(=O)O)NC(=O)[C@H](CO)NC(=O)[C@@H](NC(=O)[C@H](Cc1ccccc1)NC(=O)[C@@H](NC(=O)CNC(=O)[C@H](CCC(=O)O)NC(=O)[C@@H](C)NC(=O)CN1CCCCC1=O)[C@@H](C)O)[C@@H](C)O)[C@@H](C)CC)C(C)C)C(N)=O)C(=O)O [Compound 213] | 90 | < 0.1 | 10 to 1000 | 59 | 0.1 to 1 |
| CCCCCCCCCCCCCCCC(=O)N[C@@H](CCC(=O)NCCCC[C@H](NC(=O)[C@H](CO)NC(=O)[C@@H]1CCCN1C(=O)[C@@H]1CCCN1C(=O)[C@@H]1CCCN1C(=O)[C@H](C)NC(=O)CNC(=O)[C@H](CO)NC(=O)[C@H](CO)NC(=O)[C@@H]1CCCN1C(=O)CNC(=O)CNC(=O)[C@H](C)NC(=O)[C@H](CC(C)C)NC(=O)[C@H](CC(C)C)NC(=O)[C@H](Cc1c[nH]c2ccccc12)NC(=O)[C@H](CC(N)=O)NC(=O)[C@@H](NC(=O)[C@H](Cc1ccccc1)NC(=O)[C@H](CCC(=O)O)NC(=O)C(C)(C)NC(=O)[C@H](C)NC(=O)[C@H](C)NC(=O)[C@H](CCC(N)=O)NC(=O)[C@H](CCCCN)NC(=O)[C@H](CC(=O)O)NC(=O)[C@H](CC(C)C)NC(=O)[C@H](Cc1ccc(O)cc1)NC(=O)[C@@H](NC(=O)[C@H](CO)NC(=O)[C@H](Cc1ccc(O)cc1)NC(=O)[C@H](CC(=O)O)NC(=O)[C@H](CO)NC(=O)[C@@H](NC(=O)[C@H](Cc1ccccc1)NC(=O)[C@@H](NC(=O)CNC(=O)[C@H](CCC(=O)O)NC(=O)[C@@H](C)NC(=O)CCN1CCCCC1=O)[C@@H](C)O)[C@@H](C)O)[C@@H](C)CC)C(C)C)C(N)=O)C(=O)O [Compound 214] | 95 | < 0.1 | 10 to 1000 | 45 | 1 to 10 |
| CCCCCCCCCCCCCCCC(=O)N[C@@H](CCC(=O)NCCCC[C@H](NC(=O)[C@H](CO)NC(=O)[C@@H]1CCCN1C(=O)[C@@H]1CCCN1C(=O)[C@@H]1CCCN1C(=O)[C@H](C)NC(=O)CNC(=O)[C@H](CO)NC(=O)[C@H](CO)NC(=O)[C@@H]1CCCN1C(=O)CNC(=O)CNC(=O)[C@H](C)NC(=O)[C@H](CC(C)C)NC(=O)[C@H](CC(C)C)NC(=O)[C@H](Cc1c[nH]c2ccccc12)NC(=O)[C@H](CC(N)=O)NC(=O)[C@@H](NC(=O)[C@H](Cc1ccccc1)NC(=O)[C@H](CCC(=O)O)NC(=O)C(C)(C)NC(=O)[C@H](C)NC(=O)[C@H](C)NC(=O)[C@H](CCC(N)=O)NC(=O)[C@H](CCCCN)NC(=O)[C@H](CC(=O)O)NC(=O)[C@H](CC(C)C)NC(=O)[C@H](Cc1ccc(O)cc1)NC(=O)[C@@H](NC(=O)[C@H](CO)NC(=O)[C@H](Cc1ccc(O)cc1)NC(=O)[C@H](CC(=O)O)NC(=O)[C@H](CO)NC(=O)[C@@H](NC(=O)[C@H](Cc1ccccc1)NC(=O)[C@@H](NC(=O)CNC(=O)[C@H](CC(=O)O)NC(=O)CSCC(=O)NCCN1CCCCC1=O)[C@@H](C)O)[C@@H](C)O)[C@@H](C)CC)C(C)C)C(N)=O)C(=O)O [Compound 217] (X6-DGTFTSDYSIYLDKQAA[Aib]EFVNWLLAGGPSSGAPPPSK([γGlu-Palmitoyl])-NH2) | 97 | < 0.1 | > 1000 | 58 | 1 to 10 |
